Consider 14 compounds from patent US8309577B2, “Quinuclidine compounds as α-7 nicotinic acetylcholine receptor ligands” (Bristol-Myers Squibb Company, priority 2008, dated 2012).

For this assay, the target named is T1, α-7 nicotinic acetylcholine receptor channel expressed in HEK 293 cells (Rattus norvegicus, UniProt Q05941).
T1 construct: expressed in transfected cells
Kind of assay: Ca2+-sensitive fluorescence-based FLIPR assay, α7 nicotinic ACh receptor channel function (agonist). In kind it is cell-based. The note with it: for EC50: Table Ib, HEK 293 cells, agonist Ca2+ flux. In outline:
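Potency and efficacy derived from kinetic FLIPR Ca²⁺-flux fluorescence, recorded 3 min after compound addition in Hanks buffer following a 10 s baseline.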
Background: Calcium flux is commonly read through the fluorescence of an indicator in the cells.

The mark [1] stands for this setting: FLIPR α7 activity rating (EC50, nM).

SMILES strings stand for the structures. pEC50: −log10 of the molar value. Read-outs that look alike come from different tables or passages of the source. A value given as a limit tells only on which side of the number the result lay.

T1 sequence (Q05941 23-502): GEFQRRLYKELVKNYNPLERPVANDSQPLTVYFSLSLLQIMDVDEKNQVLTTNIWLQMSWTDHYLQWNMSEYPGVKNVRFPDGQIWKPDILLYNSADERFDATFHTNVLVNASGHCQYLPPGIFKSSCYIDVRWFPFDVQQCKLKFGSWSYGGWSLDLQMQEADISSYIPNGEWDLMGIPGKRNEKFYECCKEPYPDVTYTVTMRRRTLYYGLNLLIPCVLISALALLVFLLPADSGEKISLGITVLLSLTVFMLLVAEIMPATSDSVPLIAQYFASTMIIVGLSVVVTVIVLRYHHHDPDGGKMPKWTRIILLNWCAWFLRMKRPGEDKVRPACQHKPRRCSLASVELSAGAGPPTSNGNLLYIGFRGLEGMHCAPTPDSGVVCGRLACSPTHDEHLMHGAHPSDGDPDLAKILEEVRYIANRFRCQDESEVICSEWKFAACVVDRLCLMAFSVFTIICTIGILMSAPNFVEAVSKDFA

As a reminder, the EC50 is the concentration at which the effect is half-maximal. Higher therefore signals lower potency in that assay. For the compound `c1cnc(-c2cc(NC3=NC[C@@]4(CN5CCC4CC5)O3)ncn2)cn1` [Example 334, (R)—N-(6-(Pyrazin-2-yl)pyrimidin-4-yl)-4H-1′-azaspiro[oxazole-5,3′-bicyclo[2.2.2]octan]-2-amine], under setting [1], the concentration for a half-maximal effect (EC50) was less than 100 nM.
Regarding `Cc1cc2cnc(NC3=NC[C@@]4(CN5CCC4CC5)O3)cc2cc1C` [Example 335, (2R)—N-(6,7-Dimethyl-3-isoquinolinyl)-4′H-spiro[4-azabicyclo[2.2.2]octane-2,5′-[1,3]oxazol]-2′-amine], the EC50 reads like this: (FLIPR α7 (EC50, nM)) 104 nM; under setting [1], 100 to 1000 nM.
The compound `Cc1ccc2nc(NC3=NC[C@@]4(CN5CCC4CC5)O3)oc2c1` [Example 336, (2R)—N-(6-Methyl-1,3-benzoxazol-2-yl)-4′H-spiro[4-azabicyclo[2.2.2]octane-2,5′-[1,3]oxazol]-2′-amine] yielded a concentration for a half-maximal effect (EC50) under setting [1] of less than 100 nM.
For the compound `COc1ccc2nc(NC3=NC[C@@]4(CN5CCC4CC5)O3)oc2c1` [Example 337, (2R)—N-(6-Methoxy-1,3-benzoxazol-2-yl)-4′H-spiro[4-azabicyclo[2.2.2]octane-2,5′-[1,3]oxazol]-2′-amine], under setting [1], the EC50 was in the range of 100 to 1000 nM.
In the case of `Clc1cccc2cnc(NC3=NC[C@@]4(CN5CCC4CC5)O3)cc12` [Example 338A, (R)—N-(5-chloroisoquinolin-3-yl)-4H-1′-azaspiro[oxazole-5,3′-bicyclo[2.2.2]octan]-2-amine], the EC50 under setting [1] is less than 100 nM.
Same read-out and setting: then `Clc1ccc2cc(NC3=NC[C@@]4(CN5CCC4CC5)O3)ncc2c1` [Example 338B, (R)—N-(7-chloroisoquinolin-3-yl)-4H-1′-azaspiro[oxazole-5,3′-bicyclo[2.2.2]octan]-2-amine], with less than 100 nM; and `Clc1cnc2nc(NC3=NC[C@@]4(CN5CCC4CC5)O3)sc2c1` [Example 339, (R)—N-(6-Chlorothiazolo[4,5-b]pyridin-2-yl)-4H-1′-azaspiro[oxazole-5,3′-bicyclo[2.2.2]octan]-2-amine], with less than 100 nM; and `Fc1ccc2nc(NC3=NC[C@@]4(CN5CCC4CC5)O3)sc2n1` [Example 340, (R)—N-(5-Fluorothiazolo[5,4-b]pyridin-2-yl)-4H-1′-azaspiro[oxazole-5,3′-bicyclo[2.2.2]octan]-2-amine], with less than 100 nM.
Still for that read-out and setting: then `Cc1cnc2nc(NC3=NC[C@@]4(CN5CCC4CC5)O3)sc2n1` [Example 341, (R)—N-(6-methylthiazolo[5,4-b]pyrazin-2-yl)-4H-1′-azaspiro[oxazole-5,3′-bicyclo[2.2.2]octan]-2-amine], with less than 100 nM.
For orientation: pEC50 means the negative decadic logarithm of the EC50, by convention in mol/L. Compound `COc1cc2cnc(NC3=NC[C@@]4(CN5CCC4CC5)O3)cc2cc1OC` [Example 342, (R)—N-(6,7-dimethoxyisoquinolin-3-yl)-4H-1′-azaspiro[oxazole-5,3′-bicyclo[2.2.2]octan]-2-amine] gave a negative logarithm of the EC50 (pEC50) of 5.80. The same compound gave an EC50 under setting [1] of 1000 to 100000 nM.
Consider `c1nc(NC2=NC[C@@]3(CN4CCC3CC4)O2)cc2c1CCCC2` [Example 343, (R)—N-(5,6,7,8-Tetrahydroisoquinolin-3-yl)-4H-1′-azaspiro[oxazole-5,3′-bicyclo[2.2.2]octan]-2-amine], for which the concentration for a half-maximal effect (EC50) under setting [1] is less than 100 nM.
Still for that read-out and setting: then `COc1cc2cnc(NC3=NC[C@@]4(CN5CCC4CC5)O3)cc2cc1Cl` [Example 344, (R)—N-(6-Chloro-7-methoxyisoquinolin-3-yl)-4H-1′-azaspiro[oxazole-5,3′-bicyclo[2.2.2]octan]-2-amine], with less than 100 nM.
Same read-out and setting: next, `Fc1cccc2cnc(NC3=NC[C@@]4(CN5CCC4CC5)O3)cc12` [Example 345, (R)—N-(5-Fluoroisoquinolin-3-yl)-4H-1′-azaspiro[oxazole-5,3′-bicyclo[2.2.2]octan]-2-amine]: less than 100 nM.
In the case of `Fc1ccc(Br)c2cnc(NC3=NC[C@@]4(CN5CCC4CC5)O3)cc12` [Example 346, (R)—N-(8-Bromo-5-fluoroisoquinolin-3-yl)-4H-1′-azaspiro[oxazole-5,3′-bicyclo[2.2.2]octan]-2-amine], the half-maximal effective concentration (EC50) was 310 nM (FLIPR α7 (EC50, nM)) and 100 to 1000 nM under setting [1].
